Assay results: US11510980B2, “Brartemicin analogues” (VICTORIA LINK LTD, priority 2017, dated 2022)
“Also recorded” adds a separate entry of the source.

Tests used:
C57BL/6 mice = assay: Delayed-type hypersensitivity immunisation with OVA in oil-in-water emulsion; format: in vivo; details: for Th1 immune response / adjuvant activity in vivo: oil-in-water emulsion
Procedure: Delayed-type hypersensitivity: Mice were sensitised by subcutaneous injection with oil-in-water emulsions (mineral oil/Tween-80/PBS, 9:1:90, v/v/v) containing OVA only (200 μg), OVA+TDB (OVA=200 μg, TDB=0.3 μmol), OVA+9a (OVA=200 μg, 9a=0.3 μmol) or no OVA. After seven days, the mice were challenged with OVA (100 μg/footpad) and after a further seven days, the mice were sacrificed and their spleens harvested. For in vitro restimulation, splenocytes were restimulated with OVA and analysed for spenocyte number (measured at 450 nm after 3 hours, Cell Count Reagent SF, Nacalai Tesque Inc.), IFN-γ production, and IL-17 production. Footpad swelling was measured using a venier caliper pre-challenge, 24 hours post-challenge, and 48 hours post-challenge. Sera were collected from each mouse on days 0, 7, and 14 and analysed for OVA-specific antibody titers by ELISA using HRP coupled goat anti-mouse IgG (GE Health-care), IgG1, IgG2b, IgG2c, and IgG3 (SouthernBiotec). EC50 were defined by plotting the absorbance at 450 nm against log of serum concentration. Antibody titration curves were plotted using GraphPad Prism7 (GraphPad Software).
Compound 9a was then evaluated in vivo to confirm its capacity to induce a Th1 antigen-specific response using a delayed-type hypersensitivity immunisation protocol. To this end, four groups of C57BL/6 mice were immunised by subcutaneous injection with oil-in-water emulsions containing either OVA only, OVA+C18dMeBrar (9a), OVA+TDB, or no OVA. After seven days the mice were challenged with OVA (100 μg per footpad) and after a further seven days, the splenocytes were isolated and restimulated with OVA at three concentrations (10, 30, or 100 μg/mL). The immune response was measured by determining footpad swelling, production of IFN-γ and IL-17 (FIG. 7b), T cell proliferation (FIG. 4a), and antibody titres (FIG. 4c). […] Accordingly, the ability of C18dMeBrar (9a) to lead to an enhanced Th1 immune response was even more striking. This overall immune profile was also reflected in the antibody production by immunised mice. […] A high IgG2c:IgG1 ratio is commonly associated with Th1 responses and a lower ratio is associated with Th2 responses. The production of IgG2c in mice immunised with C18dMeBrar increased three-fold as compared to OVA alone, providing evidence that C18dMeBrar induces a Th1-biased immune response.

mMincle-Ig = target: T1, mMincle-Ig (Mus musculus, UniProt Q9R0Q8); assay: In vitro Mincle binding assay (ELISA) with mMincle-Ig fusion protein; design: species or system murine; details: plate-coated ligand 0.1 nmol/well
T1 construct: using soluble Mincle-Ig fusion-proteins; made in house
T1 sequence (Q9R0Q8 46-214 limits assumed): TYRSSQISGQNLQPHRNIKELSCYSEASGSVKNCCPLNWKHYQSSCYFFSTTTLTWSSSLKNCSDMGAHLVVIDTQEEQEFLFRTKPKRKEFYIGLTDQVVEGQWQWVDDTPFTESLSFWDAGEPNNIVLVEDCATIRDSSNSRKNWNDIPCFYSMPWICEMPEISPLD
Procedure: (§1) Preparation of ligand-coated plates: Brartemicin analogues 9a-9i, TDM (Carbosynth, Sigma Aldrich), and TDB^14 were dissolved in CHCl3:MeOH (2:1, 1 mM), diluted in isopropanol ([…]) and added to 96-well plates (20 μL/well). The solvents were evaporated and the coated plates were used immediately.
In vitro Mincle binding assay: The preparation of mMincle- and hMincle-Ig fusion proteins have been previously described. Plate-coated glycolipids 9a-i, TDB, and TDM were incubated with hMincle-Ig, mMincle-Ig, or hIgG1-Fc (Ig) [3 μg/mL in binding buffer (20 mM Tris-HCl, 150 mM NaCl, 1 mM CaCl2), 2 mM MgCl2, pH 7.0)]. Detection of bound protein was achieved via incubation with anti-hIgG-HRP followed by the addition of a colorimetric substrate and measurement of OD at 450 nm. Background was accounted for by subtracting the hIgG1-Fc OD450 values from fusion protein OD450 values
The synthesised brartemicin analogues prepared in Example 1 were first tested for their ability to bind to both human and murine Mincle in an enzyme-linked immunosorbent assay (ELISA) using soluble Mincle-Ig fusion-proteins (FIG. 1a).

mMincle+FcRγ = target: T2, mMincle+FcRγ (Mus musculus, UniProt Q9R0Q8); assay: 2B4-NFAT-GFP reporter cells expressing mMincle+FcRγ; format: cell-based, murine; details: ligand-coated plates 0.01, 0.1 or 1 nmol/well, 18 hours
T2 construct: expressed in transfected cells; host or cells: 2B4-NFAT-GFP reporter cells
T2 sequence (Q9R0Q8 1-214): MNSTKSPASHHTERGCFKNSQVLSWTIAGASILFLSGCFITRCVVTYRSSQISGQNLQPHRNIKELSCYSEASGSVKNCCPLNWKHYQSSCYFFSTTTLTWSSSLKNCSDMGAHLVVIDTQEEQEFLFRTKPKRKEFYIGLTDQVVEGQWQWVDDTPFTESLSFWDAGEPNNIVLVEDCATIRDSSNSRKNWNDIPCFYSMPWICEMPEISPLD
T2 sequence (P20491 19-86 partner): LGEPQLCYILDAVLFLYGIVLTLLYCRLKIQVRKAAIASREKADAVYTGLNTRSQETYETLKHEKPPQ
Procedure: as §1
2B4-NFAT-GFP reporter cells: 2B4-NFAT-GFP reporter cells expressing mMincle+FcRγ, hMincle+FcRγ, or FcRγ only have been previously described. […] The reporter cells were harvested, stained with propidium iodide, and analysed for NFAT-GFP expression using flow cytometry (FACS Calibur).
To determine whether the Mincle binding observed in Example 1 correlated with cellular activation, nuclear factor of activated T cells (NFAT)-green fluorescent protein (GFP) reporter cells expressing mMincle or hMincle coupled to FcRγ were stimulated using plates coated with TDM, TDB, brartemicin (9i), or analogues 9a-9h.
Activation of the reporter cells was measured through the production of GFP, which was monitored by flow cytometry (FIGS. 1b and 3c).
With the compounds 43a-h in hand, the ability of these analogues to bind and signal through Mincle was assessed (FIG. 5). Accordingly, NFAT-GFP reporter cells expressing mMincle+FcRγ, hMincle+FcRγ, or FcRγ-only were stimulated with the 2G-brartemicin analogues 43a-h, TDB, iPrOH, or the p-OC18H37 substituted analogue, 9f. Reporter cell activation was measured by the production of NFAT-GFP, which was analysed by flow cytometry.

[1] = s.c. OVA 200 μg + adjuvant 0.3 μmol

## 6,6′-Di-O-(2-hydroxy-4-octabenzyloxybenzoyl)-α,α′-D-trehalose [9a]
C57BL/6 mice; all concentrations of OVA re-stimulation
  cell count compared to TDB: significant increase in cell count
C57BL/6 mice; [1]
  number of splenocytes as compared to OVA alone: significantly larger number of splenocytes
  Th1 immune response / adjuvant activity in vivo: potent adjuvant activity in vivo; also recorded: strong Th1 recall response; also recorded: polarised immune response with a distinct Th1 profile
C57BL/6 mice; s.c. OVA 200 μg + adjuvant 0.3 μmol, listed as C18dMeBrar
  Th1 immune response / adjuvant activity in vivo: stronger Th1 immune response
C57BL/6 mice; s.c. OVA 200 μg + adjuvant 0.3 μmol, OVA challenge 100 μg/footpad
  footpad swelling: neither 9a nor TDB induced any
C57BL/6 mice; s.c. OVA 200 μg + adjuvant 0.3 μmol, restimulation 10, 30 or 100 μg/mL OVA
  IL-17 production by splenocytes restimulated with OVA: neither 9a nor TDB induced any
C57BL/6 mice; s.c. OVA 200 μg + adjuvant 0.3 μmol, splenocytes restimulated with 100 μg/mL OVA
  antigen specific IFN-γ production, re-stimulating with 100 μg/mL of antigen: significantly enhanced cytokine production
C57BL/6 mice; s.c. OVA 200 μg + adjuvant 0.3 μmol, splenocytes restimulated with 10, 30 or 100 μg/mL OVA
  antigen specific IFN-γ production, all concentrations of OVA: trend towards increased
C57BL/6 mice; serum, ELISA
  IgG1 antibody production: showed increases
  IgG2b antibody production: showed increases
  IgG2c antibody production: showed increases
  production of IgG2c as compared to OVA alone: three-fold
  production of OVA-specific IgG antibodies: elevated the production of IgG antibodies
C57BL/6 mice; serum, ELISA, listed as C18dMeBrar
  production of OVA-specific IgG antibodies: only significant for C18dMeBrar
mMincle-Ig
  binding to mMincle-Ig (ELISA, OD at 450 nm): good binding
mMincle+FcRγ
  activation of mMincle NFAT-GFP reporter cells (GFP by flow cytometry): strongly activated
